Experimental findings from publication PMC9131871, “Impact of Micropolymorphism Outside the Peptide Binding Groove in the Clinically Relevant Allele HLA-C*14 on T Cell Responses in HIV-1 Infection” (Journal of Virology, 2022) are described below.

This experiment deals with NL4-3-infected .221-C1402 and .221-C1403 cells. Description: ICS assay, peptide-specific bulk T cells against NL4-3-infected .221 cells. Format: cell-based, human. As to conditions: IFN-γ ICS, p24+ cells 52% and 54%, not by uninfected .221 cells, triplicate assays. As for the experimental part: We next investigated whether T cells specific for these peptides could recognize NL4-3-infected .221-C1402 or .221-C1403 cells.
FIG 5 Recognition of NL4-3-infected .221-CD4 cells by peptide-specific CD8^+ T cells. The response of bulk T cells specific for 6 peptides to NL4-3-infected .221-C1402 cells, NL4-3-infected .221-C1403 cells, NL4-3-infected 721.221 cells, uninfected .221-C1402 cells, and uninfected .221-C1403 cells was analyzed by ICS assay. The frequencies of p24^+ cells were as follows: NL4-3-infected .221-C1402 cells, 52%; NL4-3-infected .221-C1403 cells, 54%. The results are means and SDs from triplicate assays.
PBMCs from HIV-1-infected individuals were stimulated with 1 μM concentrations of the corresponding peptides and then cultured for 2 weeks in RPMI 1640 medium (Thermo Fisher) containing 10% FCS, 20 ng/mL of human recombinant interleukin 2 (rIL-2) (ProSpec), 1× minimal essential medium (MEM) nonessential amino acid solution (Gibco), and 1 mM sodium pyruvate solution (Gibco). Following T cell expansion, .221-C1402 cells or .221-C1403 cells prepulsed with each HIV-1 peptide or .221-C1402 cells or .221-C1403 cells infected with HIV-1 NL4-3 were added to a 96-well plate together with bulk-cultured T cells, and the cells were incubated for 4 h at 37°C with brefeldin A ([…]). The cells were then stained with Pacific blue (PB)-labeled anti-CD3 MAb (BioLegend), FITC-labeled anti-CD19 MAb (BioLegend), allophycocyanin (APC)-labeled anti-CD8 MAb (BioLegend), and a LIVE/DEAD fixable near-infrared (IR) dead-cell staining kit (Invitrogen) and subsequently fixed with 4% paraformaldehyde and incubated in permeabilization buffer (0.1% saponin–5% FBS–PBS). Thereafter, the cells were stained with phycoerythrin (PE)-labeled anti-IFN-γ MAb (BioLegend). Staining data were acquired on a FACSCanto II instrument (BD Biosciences) and analyzed using FlowJo 10.7.1 software.
On to LYNTIAVLY [Gag LY9], for which the “activation of peptide-specific T cells by NL4-3-infected .221-C1402 and .221-C1403 cells” value was “Strong functional activation”.
In the case of AFSPEVIPM [Gag AM9] it was “Strong functional activation”; in that of IYHTQGYF [Nef IF8], “Strong functional activation”; in that of KYHSNWRAM [Pol KM9], “Strong functional activation”.
In the case of YFPDWQNYT [Nef YT9] it was “Strong functional activation”.
With AFHHVAREL [Nef AL9], the “activation of peptide-specific T cells by NL4-3-infected .221-C1402 and .221-C1403 cells” value is “Strong functional activation”.
